Tested on: red blood cells
Experiment: Incorporation of the ceramide conjugate into red blood cell membranes, fluorescence scored after labelling with Avidin Alexa Fluor 488
Assay type: cell-based
Description: A 50 μL volume of packed red blood cells was re-suspended in an equal volume of a dispersion in phosphate buffered saline (PBS) (pH 7.2) of the ceramide conjugate (X). The re-suspended cells were incubated at 37° C. for two hours and then washed once with PBS. The modified cells were diluted with PBS to provide a suspension at a concentration equivalent to 5% of the packed cell volume. A 30 μL volume of the diluted suspension was then mixed with an equal volume of a 0.1 mg/mL solution of Avidin Alexa Flour™ 488 in PBS. The mixture was incubated at room temperature for 30 minutes before washing and re-suspending the modified cells in PBS. The fluorescence of cells in a 5 μL volume was observed using a microscope (Olympus BX51) at 400 x magnification.
The modified cells prepared using dispersions of the ceramide conjugate (X) at different concentrations (0 (control), 0.5, 5 and 50 μM) were scored.

## ceramide-β-Ala-CMG(2)-biot [ceramide conjugate (X)]
  Incorporation into cell membranes (fluorescent labelling of the modified cells): spontaneously incorporated into cell membranes

From patent publication US20230374076A1, “THE PREPARATION OF CERAMIDE CONJUGATES AND DERIVATIVES OF SP[…]” (KODE BIOTECH LIMITED, priority 2017, published 2023)
